One molecule from patent EP4512427A1, “ANTIBODY-DRUG CONJUGATES BASED ON MOLECULAR GLUE DEGRADERS AND USES THEREOF” (Mablink Bioscience, priority 2023, dated 2025) can be followed below.

The test system of one data set is JIMT-1 cells. Kind of data set: Cell cycle arrest assessment (propidium iodide). The data set is classed as cell-based, human. The settings on record: 24h at 2, 5, 10, and 50nM. How it is done: 1×10^6 JIMT-1 cells were plated in 3mL of DMEM/FBS 90:10 (v/v) in 6-well plates and incubated overnight. Cells were treated with the compound 2384 of the invention or with CR8 for 24h. Cells were then harvested and washed three times with PBS. Cells were suspended into 300µL of propidium iodide working solution (0.05mg/mL) and incubated for 45 minutes at 4°C in the dark. Analysis was performed using a BD Fortessa flow cytometer controlled by BD FACSDiva software (BD Biosciences) and data were analyzed using FlowJo software (BD Bioscience).

Data set [1] has as its system cancerous human cell lines. Kind of data set: In vitro cytotoxicity assay (MTT), side-by-side comparisons over the cell line panel. The data set is classed as cell-based. To be noted: side-by-side comparison (Figures 1-3, Table 3), result in words. How it is done: In vitro cytotoxicity of compounds of the disclosure was assessed on several cancerous human cell lines. Cells were plated in 96-well plates at an appropriate density depending on the cell line (between 1000 and 10 000 cells/well in 100µL of appropriate culture media) and incubated at 37°C for 24 hours. Serial dilutions of the tested compound previously dissolved in culture media (50µL) were added, and incubation was carried at 37°C out for 6 days. MTT (5mg/mL in PBS, 20µL, Sigma-Aldrich) was added into the wells, and incubation was continued for 1 to 4 hours at 37°C. Culture media was then carefully removed, and well content was homogeneously dissolved with acidified isopropanol. Absorbance values were measured on a microplate reader using a wavelength of 570 nm (with a reference wavelength of 690 nm). The IC50 concentration values compared to untreated control cells were determined using inhibition dose response curve fitting (GraphPad Prism 9). Exatecan mesylate (cat#HY-13631A) and CR8 (CAS# 294646-77-8; cat#HY-18340) were purchased from MedChemExpress (China).

The next data set is described as follows: in vitro. The settings on record: PAMPA, pH 7.4. A general note: In PAMPA a lipid-coated filter parts donor from acceptor wells.
The target in another data set is T1, BCRP (Homo sapiens, UniProt Q9UNQ0).
T1 construct: host or cells: MDCK-BCRP (Preadyport)
T1 sequence (Q9UNQ0 1-655): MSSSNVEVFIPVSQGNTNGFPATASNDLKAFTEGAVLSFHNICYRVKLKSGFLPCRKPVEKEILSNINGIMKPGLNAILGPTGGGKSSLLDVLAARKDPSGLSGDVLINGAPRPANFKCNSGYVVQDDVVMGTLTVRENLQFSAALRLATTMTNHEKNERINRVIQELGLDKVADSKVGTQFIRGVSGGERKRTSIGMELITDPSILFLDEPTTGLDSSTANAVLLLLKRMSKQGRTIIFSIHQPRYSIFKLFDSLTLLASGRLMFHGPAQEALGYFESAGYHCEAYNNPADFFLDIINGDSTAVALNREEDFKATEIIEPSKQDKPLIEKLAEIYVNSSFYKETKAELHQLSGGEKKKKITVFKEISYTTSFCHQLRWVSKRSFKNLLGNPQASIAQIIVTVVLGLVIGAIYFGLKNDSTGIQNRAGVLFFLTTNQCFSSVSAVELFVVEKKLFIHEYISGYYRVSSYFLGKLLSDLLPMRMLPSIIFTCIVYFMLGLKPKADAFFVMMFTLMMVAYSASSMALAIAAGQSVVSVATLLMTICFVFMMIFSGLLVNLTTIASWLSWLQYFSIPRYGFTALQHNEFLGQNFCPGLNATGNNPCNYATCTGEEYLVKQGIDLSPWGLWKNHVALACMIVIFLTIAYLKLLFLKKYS
The data set is described as follows: BCRP efflux substrate assay in MDCK-BCRP. It counts as in vitro ADME. To be noted: dog, pH 7.4, MDCK-BCRP.

The test system of the next data set is HT-29. Kind of data set: In vitro cytotoxicity assay (MTT). The data set is classed as cell-based. The settings on record: Homo sapiens, 144 h, 6 days incubation. In short, it runs like this:
(§1)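 Cancer cell lines seeded (1000–10 000 cells/well), allowed 24 h at 37°C, then exposed to serial compound dilutions for 6 days at 37°C. Viability by MTT (1–4 h), formazan dissolved in acidified isopropanol, absorbance 570 nm (ref. 690 nm); IC50 from dose-response fit versus untreated cells.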

A further data set has as its system HCT-116. Kind of data set: In vitro cytotoxicity assay (MTT). The data set is classed as cell-based. To be noted: Homo sapiens, 144 h, 6 days incubation. An outline of the steps:
as §1

The next data set deals with BXPC3. Kind of data set: In vitro cytotoxicity assay (MTT). The data set is classed as cell-based. To be noted: Homo sapiens, BXPC-3, 144 h, 6 days incubation. An outline of the steps: as §1
The test system of a further data set is OE-19. The data set is described as follows: In vitro cytotoxicity assay (MTT). The data set is classed as cell-based. To be noted: Homo sapiens, OE19, 144 h, 6 days incubation. In short, it runs like this: as §1
The subject of the next data set is A549. Kind of data set: In vitro cytotoxicity assay (MTT). The data set is classed as cell-based. To be noted: Homo sapiens, 144 h, 6 days incubation. An outline of the steps:
as §1

A further data set deals with KB-1. The data set is described as follows: In vitro cytotoxicity assay (MTT). It counts as cell-based. To be noted: Homo sapiens, KB16, 144 h, 6 days incubation. In short, it runs like this: as §1
For a further data set, the system named is MCF-7. Kind of data set: In vitro cytotoxicity assay (MTT). It counts as cell-based. The settings on record: Homo sapiens, MCF7, 144 h, 6 days incubation. In short, it runs like this:
as §1

For the next data set, the system named is Caco-2. Kind of data set: In vitro cytotoxicity assay (MTT). The data set is classed as cell-based. To be noted: Homo sapiens, 144 h, 6 days incubation. In short, it runs like this: as §1
The next data set concerns MDA-MB-453. Kind of data set: In vitro cytotoxicity assay (MTT). The settings on record: Homo sapiens, 144 h, 6 days incubation. It counts as cell-based, human. In short, it runs like this:
as §1

The test system of a further data set is BT-474. Kind of data set: In vitro cytotoxicity assay (MTT). The data set is classed as cell-based, human. To be noted: Homo sapiens, BT-474, 144 h. An outline of the steps:
as §1

The next data set concerns MDA-MB-231. The data set is described as follows: In vitro cytotoxicity assay (MTT). The data set is classed as cell-based, human. To be noted: Homo sapiens, 144 h, 6 days incubation. In short, it runs like this: as §1
The next data set has as its system SKBR-3. The data set is described as follows: In vitro cytotoxicity assay (MTT). The settings on record: Homo sapiens, SK-BR-3, 144 h, 6 days incubation. It counts as cell-based, human. An outline of the steps:
as §1

The next data set deals with NCI-N87. The data set is described as follows: In vitro cytotoxicity assay (MTT). The data set is classed as cell-based, human. To be noted: Homo sapiens, 144 h, 6 days incubation. In short, it runs like this: as §1
The subject of a further data set is JIMT-1. Kind of data set: In vitro cytotoxicity assay (MTT). It counts as cell-based, human. The settings on record: Homo sapiens, 144 h, 6 days incubation. An outline of the steps:
as §1

Molecules are shown by their SMILES. “Also recorded” adds a separate entry of the source.

For the molecule `N[C@H]1CC[C@H](Nc2nc(NCc3ccc(-c4ccccn4)cc3)n3ncc(Br)c3n2)CC1` [Compound 2384], the cell cycle analysis entry in the data set with JIMT-1 cells was “arrest in the G2/M phase”. Besides, the “in vitro cytotoxicity potency” value in [1] is given as “more potent compared to its isopropyl counterpart; also recorded: drastically improved low nanomolar potencies”. In addition, the Papp (usually a coefficient for how fast a substance crosses the barrier) at 5 h, 50 µM in “in vitro” was determined as 84 ×10⁻⁶ cm/s. At BCRP (read-out: Efflux ratio B/A), the efflux ratio at 1 h, 5 µM was determined as 9.24. In addition, the apical-to-basolateral permeability (Papp A→B) – broadly, how fast a substance crosses the layer from the apical side – at 1 h, 5 µM on BCRP (5µM, 60 min, read-out: Papp A (donor) to B (acceptor)) was 5.49 ×10⁻⁶ cm/s. Also, the Papp B→A (in general, how fast a substance crosses the layer from the basolateral side) at 1 h, 5 µM on BCRP (5µM, 60 min, read-out: Papp B (acceptor) to A (donor)) worked out at 50.7 ×10⁻⁶ cm/s. The IC50 – broadly, the concentration needed to halve the response being measured – worked out at 0.22 nM in the data set with HT-29; 1.19 nM in the data set with HCT-116; 1.46 nM in the data set with BXPC3; 2.24 nM in the data set with OE-19; 0.56 nM with A549; 0.38 nM in the data set on KB-1. In addition, the concentration for half-maximal inhibition (IC50) in the data set with MCF-7 turned out to be 3.42 nM; with Caco-2, 6.64 nM; in the data set on MDA-MB-453, 0.53 nM; in the data set with BT-474 it was 0.94 nM; with MDA-MB-231, 0.38 nM; in the data set with SKBR-3 it was 0.73 nM. Besides, the values for the IC50 with NCI-N87 and in the data set with JIMT-1 were 0.76 nM and 0.25 nM, respectively.
